Data from US20110237665A1, “Agrochemical Composition Comprising Pesticide and UV Absorber” (BASF SE, priority 2008, published 2011).
Where “and” joins values, the source holds several entries; their conditions need not be identical. Equal entries are not always repeated.

Key:
[1] = Determination of the surface tension of the UV absorbers; type: physicochemical; conditions: 25° C.; UV absorber concentrations from about 1 mg/l to 5,000 mg/l; water to air
Protocol: The surface tension (ST) of the UV absorbers was determined at 25° C. at concentrations of the UV absorber of from about 1 mg/l to 5,000 mg/l. The ST of water to air is, for comparison, 72.4 mN/m, the ST of commercial surfactants is about 30-35 mN/m.

[2] = Light exposure of dried metaflumizone formulation with UV absorber (Atlas Suntest, seven days), residual content by UPLC; type: physicochemical; conditions: 100 g/l metaflumizone, 40 g/l UV absorber, exposed to light seven days, unexposed blank = 100%
Protocol: A formulation comprising 100 g/l of metaflumizone and 40 g/l of UV absorber was prepared by two different methods: a) Wet grinding with subsequent addition of UV absorber as in Example 9. b) Wet grinding with UV absorber as in Example 8. About 20 mg of the mixture prepared in this way were applied to a microscope slide, allowed to dry on for 30 minutes and exposed to light continuously for seven days (Atlas Suntest CRT plus, “Outdoor” setting, exposure to light corresponds to the same spectrum and intensity as normal sunlight at midday in summer). After the exposure time, the samples were dissolved in dimethylsulfoxide. […] For comparison, a sample without UV absorber was also allowed to run (reference) in each exposure series. Evaluation: 2 samples were dissolved again as blank samples immediately after the drying on, without exposure to light, and the content of metaflumizone was determined. The resulting mean was set at 100% and the remaining samples were standardized against this.

[3] = formulation by method a) (wet grinding, subsequent addition of UV absorber)

| Compound | ST [mN/m] (surface tension) [1] | Residual content of metaflumizone (%) [2, 3] | Residual content of metaflumizone (%) ([2]; formulation by method b) (wet grinding with UV absorber)) |
| --- | --- | --- | --- |
| 2,4,6-trianilino-p-(carboxy-[Pluriol A500E]-yl)-1,3,5-triazine [Example 4B] |  | 77.5% |  |
| 2-cyano-3,3-diphenyl-acrylic acid [Pluriol A500E] ester [Example 2B] |  | 76.7% |  |
| COCCOCCOCCOCCOCCOCCOCCOC(=O)C(C#N)=C(c1ccccc1)c1ccccc1 [Example 2A, 2-cyano-3,3-diphenyl-acrylic acid [Pluriol A350E] ester] | 43.1 | 87.1% |  |
| 2-cyano-3,3-diphenylacrylic acid [EO-tridecanol]ester [Example 2D] | 33.9 |  |  |

Continued, values first:

| ST [mN/m] (surface tension) [1] | Residual content of metaflumizone (%) [2, 3] | Residual content of metaflumizone (%) ([2]; formulation by method b) (wet grinding with UV absorber)) | Compound |
| --- | --- | --- | --- |
| 45.7 | 85.9% and 83.2% | 82.8 | COCCOCCOCCOCCOCCOCCOCCOC(=O)COc1ccc(C(=O)c2ccccc2)c(O)c1 [Example 3B, (4-benzoyl-3-hydroxy-phenoxy)-acetic acid [Pluriol A350E] ester] |
|  | 74.7% |  | 3,6,9,12-tetraoxatridecylcinnamic acid amide [Example 6A] |
|  | 66.5% |  | COCCOCCOCCOCCOC(=O)C=Cc1ccccc1 [Example 6B, cinnamic acid 3,6,9,12-tetraoxatridecyl ester] |
|  | 53.3% |  | p-Aminobenzoic acid ethoxylate [Uvinul P25, reference compound] |
